For assay [1], the system named is human mast cell tryptase. Description: Kinetic parameters for enzymatic cleavage of Dns-VIP by tryptase. Type of assay: biochemical. As to the method: (§1) In a typical assay, mast cell tryptase (12.5 pM) was incubated at 37° C. with dansyl-VIP (0.2-2 μM) in 100 mM Tris-HCl (pH 8.0) containing 1 μg/ml porcine mucosal heparin and 0.02% Triton X-100 in a final volume of 2.0 ml. To some samples, secretory leukocyte protease inhibitor was added to a final concentration of between 0 and 107 nM. The tryptase was pre-incubated with the SLPI, if added, for 5 min. at 37° C. before initiating the reaction by the addition of Dns-VIP. Aliquots (250 μl) were removed at 0, 2.5, 5.0, 7.5, 10, and 20 minutes to micro-vials (Sunbrokers) and the reaction terminated by the addition of TFA to a final concentration of 3% (v/v). The acidified reaction mixture was subjected to chromatography on a C-18 reverse-phase column (Vydac, 5 micron, 0.46×25 cm). Peptide hydrolysis was monitored by HPLC using a Hewlett Packard HP1090 unit complete with binary solvent delivery and autoinjection capability. Fluorescent detection (postcolumn) was performed with an inline Gilson Model 121 filter fluorimeter (excitation at 310-410 nm, emission at 480-520 nm). Dns-VIP fragments were separated from any unconverted Dns-VIP using a linear gradient of 69:31 (v/v) to 50:50 (v/v) C:D over 5.5 minutes (C=100 mM sodium acetate, pH 6.5 plus 0.2% sodium azide, D=80% ACN in water), with return to 69:31 (v/v) C:D at 6.5 minutes. Chromatography was performed at 1.0 ml/min at 25° C. The N-terminal fluorescent products were identified by subjecting known VIP fragments (see above) to chromatography under identical conditions.
The kinetic parameters Km, kcat, and Vmax for the initial rate of formation of Dns-VIP-(1-14) and Dns-VIP-(1-20), as well as the initial rate of disappearance of full-length Dns-VIP were determined. The initial velocity for the formation of Dns-VIP-(1-20) also contains the rate for the formation of Dns-VIP-(1-21) since it appears as a shoulder on the Dns-VIP-(1-20) peak within the elution profile. […] The effect of salt concentration on the initial rates of cleavage of Dns-VIP was measured in 150 mM NaCl and 10 mM CaCl2. In all cases, the kcat/Km values decreased with increasing salt concentration. […] However, this effect was offset by an increase in all of the Km values. […] The results for 10 mM CaCl2 were similar in that Km and Vmax values increased and kcat/Km ratios decreased.
Initial reaction velocities were obtained from a linear least squares analysis of the linear part of a plot of the number of picomoles of each product produced vs. time and where less than 10% of the total Dns-VIP was consumed. To determine the Ki value, a Dixon plot of the form 1/V vs. [I] was made for data collected at two different concentrations of VIP, where V is the velocity (pmoles/min) and [I] is the concentration of SLPI used.

For the next assay, the target named is T1, bovine trypsin (Bos taurus, UniProt P00760).
T1 sequence (P00760 24-246): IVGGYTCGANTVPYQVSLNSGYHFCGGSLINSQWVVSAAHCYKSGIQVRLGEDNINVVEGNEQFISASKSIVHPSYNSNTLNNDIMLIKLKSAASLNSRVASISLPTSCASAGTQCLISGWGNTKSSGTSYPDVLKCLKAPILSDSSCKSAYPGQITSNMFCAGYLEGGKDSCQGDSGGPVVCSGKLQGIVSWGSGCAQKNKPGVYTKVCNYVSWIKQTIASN
Put plainly: GPK-AMC assay for trypsin activity (Dixon plot). Type of assay: biochemical. The following applies: at a concentration of 1800 nM. On the procedure: Inhibitory activity against tryptase and bovine trypsin was measured using Gly-Pro-Lys-aminomethylcoumarin as a substrate. The reaction was performed in assay buffer that consisted of 0.1M Tris (pH 8.0), 1 μg/ml heparin, 0.02% Triton X-100, with 20 mM CaCl2 included only in the trypsin assays. The amount of coumarin produced was determined by measuring the fluorescence (ex=370 nm, em=432 nm) on a Perkin-Elmer LS-50B fluorimeter. To measure tryptase activity, 12 μl of a 1 nM solution of tryptase (tetramer) was incubated with either the N- (34 to 650 nM final) or the C-terminal (7-150 nM final) domain of SLPI in 1.0 ml of assay buffer for 5 minutes at 37° C. The reaction was started by the addition of the substrate GPK-AMC (20 or 40 μM final) and the increase in fluorescence was measured over a 2 minute period. In order to measure trypsin activity, 3.3 μl of a 10 μg/ml solution was incubated with either the N- or C- terminal domains of SLPI, and assayed using both 10 and 20 μM GPK-AMC. To determine Ki values, Dixon plots of the form 1/V vs [I] were constructed.

The target in another assay is tryptase. Description: GPK-AMC assay for tryptase activity (Dixon plot). The assay is classed as biochemical, human. The following applies: 20 and 40 μM GPK-AMC; 37° C.; read-out: Ki for inhibition of tryptase catalyzed cleavage of GPK-AMC. On the procedure: Tryptase activity was measured according to the procedure of Schwartz, et al., J. Biol. Chem., 261, 7372-7379 (1986) , with minor modifications, using Gly-Pro-Lys-Aminomethylcoumarin (GPK-AMC) as a substrate. The reaction was performed in assay buffer (0.1M Tris, pH 8.0, 10 μg/ml heparin) at room temperature in a 96-well microtiter plate (Perkin-Elmer, Norwalk, Conn.). The amount of coumarin produced by tryptase was determined by measuring the fluorescence (ex=372 nm, em=432 nm) on a Perkin-Elmer LS-50B fluorimeter equipped with a plate reader. 50 μl of tryptase (final concentration of 333 pM) was mixed with either 50 μl of the sample to be tested or with assay buffer and incubated for 5 min. at room temperature. […] The fluorescence intensity was measured every 5 minutes. For samples that were being tested for modulators of tryptase activity, the % inhibition for each fraction was determined by:
Inhibitory activity against tryptase and bovine trypsin was measured using Gly-Pro-Lys-aminomethylcoumarin as a substrate. […] The amount of coumarin produced was determined by measuring the fluorescence (ex=370 nm, em=432 nm) on a Perkin-Elmer LS-50B fluorimeter. […] The reaction was started by the addition of the substrate GPK-AMC (20 or 40 μM final) and the increase in fluorescence was measured over a 2 minute period. […]

Assay [2] relates to human mast cell tryptase. Put plainly: VIP assay for tryptase activity (Dns-VIP hydrolysis, HPLC/fluorescence, Dixon plot). The following applies: 0.4 and 0.8 μM VIP; 12.5 pM tryptase; 37° C.; read-out: Ki for inhibition of the formation of Dns-VIP-(1-14). The assay is classed as biochemical. On the procedure:
as §1, with “The N-terminal fluorescent products were identified by subjecting known VIP fragments (see above) to chromatography under identical conditions.” left out

Ends that are not written are not given here. * marks the point of attachment. Dansyl = CN(C)c1cccc2c(S(=O)(=O)*)cccc12

For the substance “Dns-VIP: N-terminally dansylated vasoactive intestinal peptide (28 amino acids), tryptase substrate (Dansyl-HSDAVFTDNYTRLRKQMAVKKYLNSILN; ends and bridges not checked; also: synthesized on Rink resin (C-terminus not given here))”, the figures for the “decrease in the kcat/Km ratio” value with human mast cell tryptase [1] (10 mM CaCl2 vs no addition) and in the assay with human mast cell tryptase [1] (150 mM NaCl vs no addition) were approximately 5 fold and 9 fold, respectively. For the same substance, the “increase in Km” value in the assay on human mast cell tryptase [1] (150 mM NaCl vs no addition) is reported as 14 fold. The Km – broadly, the substrate concentration at which the rate is half of its maximum – came to 4.7 µM in the assay on human mast cell tryptase [1] (Addition: 10 mM CaCl2), 7.4 µM with human mast cell tryptase [1] (Addition: 150 mM NaCl) and 0.5 µM in the assay with human mast cell tryptase [1] (Addition: None). Further, the Vmax (usually the top rate of the reaction or transport when substrate is in excess) in the assay on human mast cell tryptase [1] (Addition: 10 mM CaCl2) is recorded as 8.2 pmol/min/mg; in the assay on human mast cell tryptase [1] (Addition: 150 mM NaCl) it was 6.6 pmol/min/mg; in the assay with human mast cell tryptase [1] (Addition: None), 4.3 pmol/min/mg. The kcat/Km in the assay with human mast cell tryptase [1] (Addition: 10 mM CaCl2) is listed as 0.4 M^-1 sec^1 × 10^7; in the assay on human mast cell tryptase [1] (Addition: 150 mM NaCl), 0.2 M^-1 sec^1 × 10^7; in the assay with human mast cell tryptase [1] (Addition: None) it was 1.8 M^-1 sec^1 × 10^7.

Consider “Dns-VIP-(1-20): Dansyl-VIP fragment of amino acids 1-20 formed by tryptase cleavage after Lys-20; peak includes the 1-21 shoulder (Dansyl-HSDAVFTDNYTRLRKQMAVK; UniProt P01282 125-144, looked up, fragment)”, for which the “decrease in the kcat/Km ratio” value in the assay with human mast cell tryptase [1] (10 mM CaCl2 vs no addition) came to 11 fold. Also, in the assay with human mast cell tryptase [1] (150 mM NaCl vs no addition), the “decrease in the kcat/Km ratio” value is recorded as 47 fold and the “increase in Km” value came out at 72 fold. Further, in the assay on human mast cell tryptase [1] (Addition: 10 mM CaCl2), the Km was determined as 4.5 µM, the Vmax is on record as 2.6 pmol/min/mg and the kcat/Km was 0.13 M^-1 sec^1 × 10^7. Also, in the assay with human mast cell tryptase [1] (Addition: 150 mM NaCl), the Km was 9.4 µM, the Vmax was determined as 1.1 pmol/min/mg and the kcat/Km was 0.03 M^-1 sec^1 × 10^7. Further, in the assay on human mast cell tryptase [1] (Addition: None), the Km amounted to 0.1 µM, the Vmax was 0.6 pmol/min/mg and the kcat/Km was 1.4 M^-1 sec^1 × 10^7.

Turning to “N-terminal domain: N-terminal domain of SLPI, amino acids 1-49, from formic acid cleavage of recombinant SLPI (SGKSFKAGVCPPKKSAQCLRYKKPECQSDWQCPGKKRCCPDTCGIKCLD)”, the Inhibition of trypsin entry in the assay with bovine trypsin is “unable to inhibit”. Besides, the Ki – broadly, the equilibrium dissociation constant of an inhibitor or competing ligand from its target – on tryptase came out at 0.29 µM; in the assay on human mast cell tryptase [2], 0.13 µM.

On to “C-terminal domain: C-terminal domain of SLPI, amino acids 50-107, from formic acid cleavage of recombinant SLPI (PVDTPNPTRRKPGKCPVTYGQCLMLNPPNFCEMDGQCKRDLKCCMGMCGKSCVSPVKA)”, for which the Ki on tryptase is 0.0048 µM; in the assay with human mast cell tryptase [2], 0.0016 µM.

Regarding “Dns-VIP-(1-14): Dansyl-VIP fragment of amino acids 1-14 formed by tryptase cleavage after Arg-14 (Dansyl-HSDAVFTDNYTRLR; UniProt P01282 125-138, looked up, fragment)”, the “decrease in the kcat/Km ratio” value in the assay with human mast cell tryptase [1] (10 mM CaCl2 vs no addition) is listed as 9 fold. In the assay on human mast cell tryptase [1] (150 mM NaCl vs no addition), the “decrease in the kcat/Km ratio” value stood at 16 fold, the “increase in Km” value was 59 fold and the “increase in Vmax” value was determined as 4 fold. In the assay on human mast cell tryptase [1] (Addition: 10 mM CaCl2), the Michaelis-Menten constant (Km) is 4.1 µM, the Vmax is given as 4.5 pmol/min/mg and the kcat/Km worked out at 0.25 M^-1 sec^1 × 10^7. Further, in the assay on human mast cell tryptase [1] (Addition: 150 mM NaCl), the Km stood at 7.7 µM, the Vmax came out at 4.9 pmol/min/mg and the kcat/Km is reported as 0.14 M^-1 sec^1 × 10^7. For the same substance, in the assay with human mast cell tryptase [1] (Addition: None), the Km was 0.1 µM, the Vmax is 1.3 pmol/min/mg and the kcat/Km was determined as 2.3 M^-1 sec^1 × 10^7.

Values taken from patent publication US5633227A, “Secretory leukocyte protease inhibitor as an inhibitor of tryptase” (Miles, Inc., priority 1994, dated 1997).
